According to ChEMBL document CHEMBL4261505, “Imidazoles as potential anticancer agents” (Medchemcomm, 2017):
One block for each compound: values may come before it.

What was measured:
[1] = Antiproliferative activity against human WM3629 cells; format: functional
Cytochrome P450 26A1 = target: T1, Cytochrome P450 26A1 (Homo sapiens, UniProt O43174); test: Inhibition of CYP26A1 (unknown origin)
T1 sequence (O43174 whole entry): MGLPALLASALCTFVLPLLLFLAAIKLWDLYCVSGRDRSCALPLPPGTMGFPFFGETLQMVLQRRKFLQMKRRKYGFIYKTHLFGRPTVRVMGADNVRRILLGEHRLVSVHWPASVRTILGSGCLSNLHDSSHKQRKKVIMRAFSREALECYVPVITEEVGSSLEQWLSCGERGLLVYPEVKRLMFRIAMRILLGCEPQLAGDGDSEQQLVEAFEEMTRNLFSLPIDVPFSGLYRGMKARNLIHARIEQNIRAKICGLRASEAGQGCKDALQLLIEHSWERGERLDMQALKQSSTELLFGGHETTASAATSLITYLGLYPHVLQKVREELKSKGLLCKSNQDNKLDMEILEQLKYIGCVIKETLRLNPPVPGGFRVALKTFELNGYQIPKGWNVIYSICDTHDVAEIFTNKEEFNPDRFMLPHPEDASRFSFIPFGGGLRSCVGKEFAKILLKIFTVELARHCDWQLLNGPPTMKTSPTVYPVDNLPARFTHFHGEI

HCT-116 = test: Antiproliferative activity against human HCT116 cells; format: functional, cell-based
MCF7 [2] = test: Antiproliferative activity against human MCF7 cells; format: functional, cell-based
HeLa [3] = test: Antiproliferative activity against human HeLa cells; format: functional, cell-based
A549 = test: Antiproliferative activity against human A549 cells; format: functional, cell-based
NUGC-3 = test: Antiproliferative activity against human NUGC3 cells after 72 hrs by MTT assay; format: functional, cell-based; conditions: NUGC-3, 72 h
P388 [4] = test: Antitumor activity against mouse P388 cells implanted in DBA/2J mouse assessed as increase in mouse life span at 200 mg/kg/day, po for 4 consecutive days relative to control; format: functional
Jurkat = test: Antiproliferative activity against human Jurkat cells after 72 hrs by MTT assay; format: functional, cell-based
MCF7 [5] = test: Antiproliferative activity against human MCF7 cells after 72 hrs by MTT assay; format: functional, cell-based; conditions: MCF7, 72 h
LS180 = test: Antiproliferative activity against human LS180 cells after 72 hrs by MTT assay; format: functional, cell-based; conditions: LS180, 72 h
HeLa [6] = test: Antiproliferative activity against human HeLa cells after 72 hrs by MTT assay; format: functional, cell-based
A-431 = test: Antitumor activity against human A431 cells xenografted in athymic mouse assessed as tumor growth inhibition at 25 mg/kg relative to control; format: functional; conditions: read-out: TGI
P388 [7] = test: Antitumor activity against mouse P388 cells implanted in DBA/2J mouse assessed as increase in mouse life span at 5 mg/kg, iv relative to control; format: functional

SMILES: C[C@H](O)CNc1nccc(-n2ccnc2-c2cccc(NC(=O)c3ccc(Cl)c(C(F)(F)F)c3)c2)n1
- GI50 [1]: 0.62 µM

SMILES: C[C@H](O)CNc1nccc(-n2ccnc2-c2cccc(NC(=O)Nc3ccc(Cl)c(Cl)c3)c2)n1
- GI50 [1]: 0.65 µM

SMILES: Cc1nc2cc(Cl)c(Cl)cc2n1C1CCCC1
- IC50 (HCT-116): 3 µM
- IC50 (MCF7 [2]): 40 µM

SMILES: Nc1nc(-c2cccs2)cn1-c1nc(-c2ccccc2)cs1
- IC50 (NUGC-3): 0.05 µM
- ILS at 200 mg/kg/day (P388 [4]): 75%

SMILES: COc1ccc(Cc2[nH]c(=N)n(C)c2Cc2ccc(O)cc2)cc1 [NAAMINE A]
- inhibition in vivo at 25 mg/kg (A-431): 85%

SMILES: CNC(=O)c1cc(Oc2ccc(NC(=O)Nc3ccc(Cl)c(C(F)(F)F)c3)cc2)ccn1 [SORAFENIB]
- GI50 [1]: 0.78 µM

SMILES: CC[C@]1(O)C[C@@H]2CN(CCc3c([nH]c4ccccc34)[C@@](C(=O)OC)(c3cc4c(cc3OC)N(C)[C@H]3[C@@](O)(C(=O)OC)[C@H](OC(C)=O)[C@]5(CC)C=CCN6CC[C@]43[C@@H]65)C2)C1 [VINBLASTINE]
- ILS at 5 mg/kg (P388 [7]): 83%

Continued, in another order:

- IC50 (Cytochrome P450 26A1): 0.03 µM
SMILES: COC(=O)C(C)(C)C(c1ccc(Nc2ccc3ccccc3c2)cc1)n1ccnc1 (stereo unspecified)

- IC50 (HCT-116): 0.5 µM
- IC50 (MCF7 [2]): 0.5 µM
SMILES: C[S+]([O-])c1nc2cc(Cl)c(Cl)cc2n1C1CCCC1 (stereo unspecified)

- IC50 (HCT-116): 0.6 µM
- IC50 (MCF7 [2]): 0.6 µM
SMILES: CS(=O)(=O)c1nc2cc(Cl)c(Cl)cc2n1C1CCCC1

- IC50 (HeLa [3]): 25.3 µM
SMILES: CCCCCCCn1c(CCCC)nc(Cl)c1-c1nc2ccccc2[nH]1

- IC50 (A549): 0.64 µM
SMILES: COc1ccc(-c2sc3nc(-c4ccc(F)cc4)c(C(=O)c4cccnc4)n3c2-c2ccc(OC)cc2)cc1

- IC50 (Jurkat): 70.9 µM
- IC50 (MCF7 [5]): > 100 µM
- IC50 (HeLa [6]): > 100 µM
SMILES: O=C1CCCc2nc3c(c(-c4ncc[nH]4)c21)C(=O)c1ccccc1-3
- IC16 (Jurkat): 1.7 µM
- IC16 (MCF7 [5]): > 100 µM
- IC16 (LS180): > 100 µM
- IC50 (LS180): > 100 µM
- IC16 (HeLa [6]): > 100 µM

- IC50 (Jurkat): 95.8 µM
- IC50 (MCF7 [5]): 77.1 µM
- IC50 (HeLa [6]): 59 µM
SMILES: CC1CC(=O)C2=C(C1)N(c1ccccc1)C1=C(C(=O)c3ccccc31)C2c1nc(Cl)c(Cl)[nH]1 (stereo unspecified)
- IC16 (Jurkat): 1.7 µM
- IC16 (MCF7 [5]): 13.6 µM
- IC16 (LS180): 19.4 µM
- IC50 (LS180): > 100 µM
- IC16 (HeLa [6]): 10.7 µM

- IC50 (HeLa [3]): 30.2 µM
SMILES: CCCCc1nc(Cl)c(-c2nc3ccccc3[nH]2)n1Cc1cccc(C)c1

- IC50 (Jurkat): > 25 µM
- IC50 (MCF7 [5]): > 25 µM
- IC50 (HeLa [6]): > 25 µM
SMILES: CC1CC(=O)C2=C(C1)NC1=C(C(=O)c3ccccc31)C2c1ncc([N+](=O)[O-])n1C (stereo unspecified)
- IC16 (Jurkat): 0.7 µM
- IC16 (MCF7 [5]): > 25 µM
- IC16 (LS180): 12.5 µM
- IC50 (LS180): > 25 µM
- IC16 (HeLa [6]): 9.2 µM
